Test results: ChEMBL document CHEMBL5523682, “The formyl peptide receptors FPR1 and FPR2 as targets for inflammatory disorders: recent advances in the development of small-molecule agonists” (Eur J Med Chem, 2024)
Each block holds one molecule with its values, some of them ahead of it.

Experiments:
[1] = biological target: T1, fMet-Leu-Phe receptor (Homo sapiens, UniProt P21462); assay: Agonist activity at human FPR1 transfected in CHO cells by cAMP assay; assay type: functional, cell-based
T1 sequence (P21462 whole entry): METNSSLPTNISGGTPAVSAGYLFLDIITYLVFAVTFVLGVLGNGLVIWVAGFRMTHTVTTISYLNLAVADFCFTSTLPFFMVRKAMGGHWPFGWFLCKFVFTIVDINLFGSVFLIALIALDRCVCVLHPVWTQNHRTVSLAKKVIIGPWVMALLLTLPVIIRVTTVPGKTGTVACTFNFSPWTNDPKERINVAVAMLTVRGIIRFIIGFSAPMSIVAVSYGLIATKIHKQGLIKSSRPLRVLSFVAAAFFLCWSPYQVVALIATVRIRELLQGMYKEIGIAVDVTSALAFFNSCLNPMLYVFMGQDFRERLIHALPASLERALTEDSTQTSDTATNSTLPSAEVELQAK

[2] = organism: Homo sapiens; assay: Selectivity ratio of EC50 for agonist activity at human FPR1 transfected in CHO cells to EC50 for agonist activity at human FPR2 transfected in CHO cells; assay type: cell-based
[3] = biological target: T2, N-formyl peptide receptor 2 (Homo sapiens, UniProt P25090); assay: Agonist activity at FPR2 (unknown origin) in HEK293 cells; assay type: functional, cell-based
T2 sequence (P25090 whole entry): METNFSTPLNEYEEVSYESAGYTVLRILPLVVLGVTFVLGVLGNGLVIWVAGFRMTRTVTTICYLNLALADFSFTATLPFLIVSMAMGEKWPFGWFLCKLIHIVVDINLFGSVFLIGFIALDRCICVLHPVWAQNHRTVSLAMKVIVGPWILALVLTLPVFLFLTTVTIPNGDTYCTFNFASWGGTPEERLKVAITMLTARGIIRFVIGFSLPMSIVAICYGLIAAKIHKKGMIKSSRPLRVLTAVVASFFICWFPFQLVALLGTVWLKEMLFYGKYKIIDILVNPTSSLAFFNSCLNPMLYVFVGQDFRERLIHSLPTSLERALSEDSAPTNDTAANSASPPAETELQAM

[4] = biological target: T1, fMet-Leu-Phe receptor; assay: Agonist activity at human FPR1 expressed in HL-60 cells assessed as increase in calcium mobilization by FLIPR analysis; assay type: functional, cell-based
[5] = biological target: T2, N-formyl peptide receptor 2; assay: Agonist activity at human FPR2 expressed in HL-60 cells assessed as increase in calcium mobilization by FLIPR analysis; assay type: functional, cell-based
[6] = biological target: T2, N-formyl peptide receptor 2; assay: Agonist activity at FPR2 (unknown origin) transfected in CHO cells by cAMP assay; assay type: functional, cell-based
[7] = biological target: T2, N-formyl peptide receptor 2; assay: Agonist activity at human FPR2 expressed in CHO cells assessed as increase in calcium mobilization by Fluo-4 AM dye based fluorescence assay; assay type: functional, cell-based
[8] = biological target: T2, N-formyl peptide receptor 2; assay: Agonist activity at FPR2 (unknown origin) expressed in CHO cells by cAMP assay; assay type: functional, cell-based
[9] = biological target: T1, fMet-Leu-Phe receptor; assay: Agonist activity at FPR1 (unknown origin) in HEK293 cells; assay type: functional, cell-based
[10] = biological target: T2, N-formyl peptide receptor 2; assay: Agonist activity at human FPR2; assay type: functional

SMILES: COc1cc(OC)cc(-n2c(=O)c(NC(=O)c3ccc(OC(F)F)cc3)c(-c3c(F)cc(OC)cc3F)n2C)c1
EC50 [1]: 10 nM
Ratio EC50 [2]: 3400

SMILES: O=C(Nc1ccc(Br)nc1)[C@@H]1C2CCC([C@H]1C(=O)OCCC1CCNCC1)C21CC1 (stereo partly drawn)
EC50 [3]: 0.4 nM

SMILES: COC(=O)c1cccc(-n2c(=O)c(NC(=O)c3ccc(OC(F)F)cc3)c(-c3c(F)cc(OC)cc3F)n2C)c1
Ratio EC50 [2]: 1

SMILES: COc1cc(F)c(-c2c(NC(=O)c3ccc(OC(F)F)cc3)c(=O)n(-c3cccc(OC(F)F)c3)n2C)c(F)c1
Ratio EC50 [2]: 1

SMILES: CC[C@H](C)[C@H](NC(=O)Nc1ccc(Br)cc1F)C(=O)O
EC50 [7]: 87 nM

SMILES: COc1cccc(-n2c(=O)c(NC(=O)c3ccc(OC(F)F)cc3)c(-c3c(F)cc(OC)cc3F)n2C)c1
Ratio EC50 [2]: 0.6

SMILES: CS(=N)(=O)c1ccccc1-c1ccc(N2CC[C@@H](NC(=O)Nc3ccc(Cl)cc3F)C2=O)c(F)c1F (stereo partly drawn)
Ratio EC50 [2]: 82

SMILES: Cc1ccc(C2(NC(=O)[C@@H]3C4CCC([C@H]3C(=O)NCCCCN3CCCC3)C43CC3)CC2)cc1 (stereo partly drawn)
EC50 [3]: 4 nM

SMILES: CCC1(C(C)C)NC(=O)N(CC(=O)Nc2ccc(Br)cc2)C1=O (stereo not drawn)
EC50 [7]: 0.5 nM

SMILES: CC/C=C\C[C@@H](O)/C=C/C=C\C[C@@H](O)/C=C/C=C/C=C\[C@@H](O)CCC(=O)O
EC50 [10]: 1.2 nM

SMILES: CS(=O)(=O)c1ccccc1-c1ccc(N2CC[C@@H](NC(=O)Nc3ccc(Cl)cc3F)C2=O)c(F)c1F
Ratio EC50 [2]: 66

SMILES: CC(=O)CCCCc1nc(NC(=O)OCc2ccccc2C)co1
EC50 [3]: 0.3 nM

SMILES: O=C(CN1C(=O)C2C(C1=O)C1CCC2C12CC2)Nc1ccc(Br)cc1 (stereo not drawn)
EC50 [6]: 120 nM

Now from value to molecule, other results behind:

EC50 ([4]; hl-60): 280 nM
EC50 ([5]; hl-60): 230 nM
SMILES: COc1cccc(-c2csc(=O)n2CC(=O)Nc2ccc(Br)cc2)c1

EC50 [6]: 1400 nM
SMILES: CCOC(=O)[C@H]1C2CCC([C@H]1C(=O)Nc1ccc(Br)cc1)C21CC1 (stereo partly drawn)

EC50 [8]: 0.01 nM
SMILES: COc1ccc([C@@H]2CN(CCO)C(=O)[C@H]2NC(=O)Nc2ccc(Cl)cc2)cc1

EC50 [4]: 20000 nM
EC50 [5]: 11000 nM
SMILES: C[C@H]1CC(c2ccccc2)=NN(CC(=O)Nc2ccc(Br)cc2)C1=O

EC50 [3]: 3 nM
EC50 [9]: 38 nM
SMILES: COc1ccc(-n2c(-c3ccccc3)cnc2NC(=O)c2ccc(OC(F)F)cc2)cc1

EC50 [1]: > 10 nM
SMILES: COc1cc(F)c(-c2c(NC(=O)c3ccc(OC(F)F)cc3)c(=O)n(-c3ccccn3)n2C)c(F)c1
Ratio EC50 [2]: > 630

EC50 [4]: 3300 nM
EC50 [5]: 2400 nM
SMILES: CCCc1cn(-c2cccc(OC)c2)c(=O)n(CC(=O)Nc2ccc(Br)cc2)c1=O

EC50 [3]: 4 nM
EC50 [9]: 200 nM
SMILES: COc1cc(F)c(-n2c(-c3ccccc3)cnc2NC(=O)c2ccc(OC(F)F)cc2)c(F)c1

EC50 ([3]; hek293): 4 nM
EC50 ([9]; hek293): 5400 nM
SMILES: COc1cc(F)c(-n2c(C3CC(N)C3)cnc2NC(=O)c2ccc(OC(F)F)cc2)c(F)c1 (stereo not drawn)

EC50 [3]: 2600 nM
SMILES: CCC(Nc1ccc(OC)cc1)C(=O)N/N=C(C)/C=C/c1ccccc1 (stereo not drawn)

EC50 [3]: 15 nM
EC50 [9]: 3700 nM
SMILES: COc1ccc(NC(=O)CSc2nc3cc(OC)ccc3[nH]2)cc1

EC50 [4]: 300 nM
SMILES: COc1ccc(C2(CNC(=O)[C@](C)(Cc3c[nH]c4ccccc34)NC(=O)Nc3ccc([N+](=O)[O-])cc3)CCCCC2)nc1

EC50 [8]: 0.09 nM
SMILES: COc1ccc([C@H]2CN(Cc3cnn(S(C)(=O)=O)c3)CC[C@@H]2NC(=O)Nc2ccc(Cl)cc2)cc1 (racemic)

EC50 [4]: 110 nM
SMILES: COc1ccc(CC(Cc2ccc3c(c2)OCO3)NC(=O)Nc2ccc(Cl)cc2)cc1 (stereo not drawn)

EC50 [4]: 24000 nM
EC50 [5]: 10000 nM
SMILES: C[C@@H]1CC(c2ccccc2)=NN(CC(=O)Nc2ccc(Br)cc2)C1=O
